Data as given in US8247429B2, “Tricyclic compound and pharmaceutical use thereof” (Takeda Pharmaceutical Company Limited, priority 2006, dated 2012).

Columns and labels:
[1] = target: T1, human melatonin 1 receptors (human MT1 receptors) (Homo sapiens, UniProt P48039); assay: Melatonin receptor binding inhibitory test (2-[125I] Iodomelatonin), MT1; details: membrane fraction of CHO-hMelR7 cells, 25° C. for 2.5 hr
T1 construct: expressed in transfected cells; membrane fraction used
Method: (§1) Melatonin receptor binding inhibitory test
(1) Preparation of CHO-hMelR7 Cells Expressing Human Melatonin 1 Receptors
A cDNA fragment (SEQ ID NO: 1) encoding full-length of human melatonin 1 receptors (human MT1 receptors) was incorporated into expression vector pAKKO-111H (former name pAKKO1.11H; Biochim Biophys Acta. Vol. 1219(2), pp. 251-259, 1994) to give plasmid pAKKO-hMelR7 for animal cell expression. CHO/dhfr-cells (ATCC, #CRL-9096) were plated at a concentration of 0.3×10^6 cells/dish in a 6 cm culture dish (Becton Dickinson), and cultured under the conditions of 37° C., 5% CO2 for 48 hr. The cells were transfected with pAKKO-hMelR7 plasmid DNA (5 μg) using Cellphect Transfection Kit (Amersham, #27-9268-01). The transfected cells were cultured in Dulbecco's modified Eagle medium (DMEM) (Sigma, #D6046) containing 10% dialyzed FBS (Biowest, #S180D), 1× Non-Essential Amino Acid (Invitrogen, #11140-050) and 50 μg/mL Gentamycin (Invitrogen, #15750-060), and the cell line that stably expressed the plasmid gene was selected. By a receptor binding assay using 2-[^125I] Iodomelatonin, CHO-hMelR7 cell line showing specific binding of 2-[^125I] Iodomelatonin was selected from the obtained clones.
(§2) (3) Preparation of Cellular Membrane Fraction of CHO Cell (CHO-hMelR7 and CHO-hMT2) Stably Expressing Human MT1 and MT2 Receptors
(§3) CHO-hMelR7 and CHO-hMT2 cells were plated using Cellfactory (Nunc, #170009) under the conditions of 1×10^8 cells/2000 mL/flask. The cells were grown to confluent, and recovered by the following method. As the medium for CHO-hMelR7 and CHO-hMT2, MEM α containing 10% FBS and penicillin/streptomycin was used. […] of geneticin was added to the medium for CHO-hMT2.
(§4) The medium was discarded, cells were washed twice with 200 mL of EDTA/PBS(−), 200 mL of EDTA/PBS(−) was further added, and the cells were stood still at room temperature for 20 min until they were released. The cells were recovered in four 50 mL tubes (Becton Dickinson, #352070), and centrifuged at 1,500 rpm for 10 min at 4° C. using a low speed cooling centrifuge (Hitachi, CF7D2). The supernatant was discarded, the pellets in the four tubes were suspended in 10 mL of PBS(−), and combined in one tube (Becton Dickinson, #352070). The mixture was further centrifuged at 1,500 rpm for 10 min at 4° C., and the obtained pellets were suspended in 20 mL of ice-cooled homogenizing buffer [10 mM NaHCO3, 5 mM EDTA, Protease inhibitor Complete (Roche), pH 7.4]. The cell suspension was homogenized 3 times using a polytron homogenizer at 20,000 rpm for 30 sec. The obtained homogenate was centrifuged (2,000 rpm, 10 min, 4° C.) using a low speed cooling centrifuge. The supernatant was recovered in an ultracentrifugation tube and ultracentrifuged (40,000 rpm, 60 min, 4° C.) using an ultracentrifuge (Beckman, L-90K). To the obtained pellets was added a suspending buffer [50 mM Tris-HCl, 1 mM EDTA, Protease inhibitor Complete (Roche), pH 7.4], and the pellets were suspended by pipetting. The protein concentration of this suspension was measured, diluted to 2 mg/mL to give cellular membrane fractions of CHO-hMelR7 and CHO-hMT2 cells. The membrane fractions were dispensed to 1.5 mL tubes (Eppendorf, #0030120.086) by 100 μL, preserved in a freezer (−80° C.) and used for a binding assay. Protein was quantified using BCA protein assay kit (Pierce) with BSA as the standard.
(§5) (4) Preparation of Membrane Fraction Suspension
(§6) Immediately before use, the membrane fractions of CHO-hMelR7 and CHO-hMT2 cells of the above-mentioned (3) were diluted 20-fold with assay buffer (50 mM Tris-HCl, pH 7.7).
(§7) (5) Preparation of 2-[^125I] Iodomelatonin Solution
(§8) 2-[^125I] Iodomelatonin (#NEX236, PerkinElmer) was diluted with the assay buffer to 400 pM for MT1 and 1 nM for MT2.
(§9) The assay buffer (80 μL) of the above-mentioned (4) was added to each well of a 96-well plate (type 3363, Corning). […]

[2] = target: T2, human melatonin 2 receptors (human MT2 receptors) (Homo sapiens, UniProt P49286); assay: Melatonin receptor binding inhibitory test (2-[125I] Iodomelatonin), MT2; details: membrane fraction of CHO-hMT2 cells, 25° C. for 2.5 hr
T2 construct: expressed in transfected cells; membrane fraction used
T2 sequence (P49286 1-362): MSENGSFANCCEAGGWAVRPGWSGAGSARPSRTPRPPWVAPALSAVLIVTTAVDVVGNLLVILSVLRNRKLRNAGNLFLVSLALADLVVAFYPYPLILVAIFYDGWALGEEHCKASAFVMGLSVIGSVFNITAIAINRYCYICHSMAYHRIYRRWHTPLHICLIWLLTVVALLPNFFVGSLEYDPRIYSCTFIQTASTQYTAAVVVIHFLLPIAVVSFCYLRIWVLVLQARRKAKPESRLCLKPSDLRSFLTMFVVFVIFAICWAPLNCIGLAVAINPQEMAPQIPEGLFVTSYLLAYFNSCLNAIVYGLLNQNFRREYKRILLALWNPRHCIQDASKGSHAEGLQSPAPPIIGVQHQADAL
Method: as §1
(2) Preparation of CHO-hMT2 Cells Expressing Human Melatonin 2 Receptors
A cDNA fragment (SEQ ID NO: 2) encoding full-length of human melatonin 2 receptors (human MT2 receptors) was incorporated into expression vector pCMV-Script (Stratagene, #212220) to give the plasmid that was pCMV-human MT2 receptors expression vector for animal cell expression. CHO-K1 cells (ATCC, #CCL-61) were plated at the concentration of 1.5×10^5 cells/cm^2 in a 6 well plate (ASAHI TECHNO GLASS), and cultured under the conditions of 37° C., 5% CO2 for 24 hr. For gene transfection, solution obtained by blending pCMV-human MT2 receptors expression vector (1.9 μg), Lipofectamine Transfection Reagent (Invitrogen, #18324-012) (11.3 μL) and Minimum Essential Medium Eagle (MEM) medium (Sigma, M8042) (93.8 μL), and reacting at room temperature for 20 min was added to the cells per one well. The transfected cells were cultured in MEM medium containing 10% FBS (Life Technology) and 300 μg/mL Geneticin (GIBCO, #10131), and the cell line that stably expressed the plasmid gene was selected. By a receptor binding assay using 2-[^125I] Iodomelatonin, CHO-hMT2 cell line showing specific binding of 2-[^125I] Iodomelatonin was selected from the obtained clones.
as §2, §3, §4, §5, §6, §7, §8, §9

T1 sequence (P48039 whole entry): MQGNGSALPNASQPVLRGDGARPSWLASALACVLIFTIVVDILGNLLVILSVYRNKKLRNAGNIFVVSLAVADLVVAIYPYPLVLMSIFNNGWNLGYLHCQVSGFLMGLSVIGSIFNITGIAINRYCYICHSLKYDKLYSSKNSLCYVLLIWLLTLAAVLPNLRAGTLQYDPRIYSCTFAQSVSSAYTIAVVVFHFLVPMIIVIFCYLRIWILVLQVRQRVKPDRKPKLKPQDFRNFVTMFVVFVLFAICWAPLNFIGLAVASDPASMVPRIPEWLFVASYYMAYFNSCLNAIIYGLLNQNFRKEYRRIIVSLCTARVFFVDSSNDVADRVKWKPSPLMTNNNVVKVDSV

Compound | IC50 [1] [nM] | IC50 [2] [nM] | melting point [°C]
CC(=O)NCCC1CCc2c(Cl)cc3nn(C)cc3c21 (stereo not shown) [Example 31, N-[2-(5-chloro-2-methyl-2,6,7,8-tetrahydrocyclopenta[e]indazol-8-yl)ethyl]acetamide] | ≤ 100 | ≤ 100 | 143 to 144
CC(=O)NCC[C@@H]1CCc2ccn3nc(C)cc3c21 [Example 19, N-{2-[(9S)-2-methyl-8,9-dihydro-7H-cyclopenta[c]pyrazolo[1,5-a]pyridin-9-yl]ethyl}acetamide] | ≤ 100 | ≤ 100 | 
CC(=O)NCCC1CCc2ccc3nc(C)cn3c21 (stereo not shown) [Example 22, N-[2-(2-methyl-7,8-dihydro-6H-cyclopenta[e]imidazo[1,2-a]pyridin-8-yl)ethyl]acetamide] | ≤ 100 | ≤ 100 | 
CC(=O)NCC[C@@H]1CCc2ccc3nn(C)c(F)c3c21 [Example 23, N-{2-[(8S)-1-fluoro-2-methyl-2,6,7,8-tetrahydrocyclopenta[e]indazol-8-yl]ethyl}acetamide] | ≤ 100 | ≤ 100 | 155 to 156
CC(=O)NCCC1CCc2ccn3ncc(C)c3c21 (stereo not shown) [Example 10, N-[2-(1-methyl-8,9-dihydro-7H-cyclopenta[c]pyrazolo[1,5-a]pyridin-9-yl)ethyl]acetamide] |  |  | 121 to 122
CCC(=O)NCCC1CCc2ccn3nc(C)cc3c21 (stereo not shown) [Example 32, N-[2-(2-methyl-8,9-dihydro-7H-cyclopenta[c]pyrazolo[1,5-a]pyridin-9-yl)ethyl]propanamide] | ≤ 100 | ≤ 100 | 
CC(=O)NCC=C1CCc2c(Cl)cc3nn(C)cc3c21 [Example 30, N-[2-(5-chloro-2-methyl-6,7-dihydrocyclopenta[e]indazol-8(2H)-ylidene)ethyl]acetamide] | ≤ 100 | ≤ 100 | 177 to 178
CC(=O)NCC=C1CCc2ccc3nn(C)cc3c21 [Example 1, N-[2-(2-methyl-6,7-dihydrocyclopenta[e]indazol-8(2H)-ylidene)ethyl]acetamide] | ≤ 100 | ≤ 100 | 200 to 202
CCC(=O)NCCC1CCc2ccn3nccc3c21 (stereo not shown) [Example 12, N-[2-(8,9-dihydro-7H-cyclopenta[c]pyrazolo[1,5-a]pyridin-9-yl)ethyl]propanamide] | ≤ 100 | ≤ 100 | 72 to 73
CC(=O)NCCC1CCc2ccc3nn(C)cc3c21 (stereo not shown) [Example 2, N-[2-(2-methyl-2,6,7,8-tetrahydrocyclopenta[e]indazol-8-yl)ethyl]acetamide] | ≤ 100 | ≤ 100 | 
CC(=O)NCCC1CCc2ccn3nccc3c21 (stereo not shown) [Example 11, N-[2-(8,9-dihydro-7H-cyclopenta[c]pyrazolo[1,5-a]pyridin-9-yl)ethyl]acetamide] | ≤ 100 | ≤ 100 | 100 to 101
CC(=O)NCCC1CCc2ccn3nc(C)cc3c21 (stereo not shown) [Example 18, N-[2-(2-methyl-8,9-dihydro-7H-cyclopenta[c]pyrazolo[1,5-a]pyridin-9-yl)ethyl]acetamide] | ≤ 100 | ≤ 100 | 
Cc1cc2c3c(ccn2n1)CCC3CCNC(=O)C1CC1 (stereo not shown) [Example 33, N-[2-(2-methyl-8,9-dihydro-7H-cyclopenta[c]pyrazolo[1,5-a]pyridin-9-yl)ethyl]cyclopropanecarboxamide] | ≤ 100 | ≤ 100 | 112 to 113
CCC(=O)NCC=C1CCc2ccc3nn(C)cc3c21 [Example 5, N-[2-(2-methyl-6,7-dihydrocyclopenta[e]indazol-8(2H)-ylidene)ethyl]propanamide] | ≤ 100 | ≤ 100 | 185 to 187
CC(=O)NCC[C@@H]1CCc2ccc3nn(C)cc3c21 [Example 3] | ≤ 100 | ≤ 100 | 
CC(=O)NCCC1CCc2ccn3nc(-c4ccccc4)cc3c21 (stereo not shown) [Example 34, N-[2-(2-phenyl-8,9-dihydro-7H-cyclopenta[c]pyrazolo[1,5-a]pyridin-9-yl)ethyl]acetamide] |  | ≤ 100 | 159 to 160
CC(=O)NCCC1CCc2ccc3nn(C)c(C)c3c21 (stereo not shown) [Example 8, N-[2-(1,2-dimethyl-2,6,7,8-tetrahydrocyclopenta[e]indazol-8-yl)ethyl]acetamide] | ≤ 100 | ≤ 100 | 146 to 149
CCc1cc2c3c(ccn2n1)CCC3CCNC(C)=O (stereo not shown) [Example 21, N-[2-(2-ethyl-8,9-dihydro-7H-cyclopenta[c]pyrazolo[1,5-a]pyridin-9-yl)ethyl]acetamide] | ≤ 100 | ≤ 100 | 
CCOC(=O)c1c(C)nn2ccc3c(c12)C(CCNC(C)=O)CC3 (stereo not shown) [Example 13, ethyl 9-[2-(acetylamino)ethyl]-2-methyl-8,9-dihydro-7H-cyclopenta[c]pyrazolo[1,5-a]pyridine-1-carboxylate] |  |  | 101 to 103
CCC(=O)NCCC1CCc2ccc3nn(C)cc3c21 (stereo not shown) [Example 6, N-[2-(2-methyl-2,6,7,8-tetrahydrocyclopenta[e]indazol-8-yl)ethyl]propanamide] | ≤ 100 | ≤ 100 | 
CC(=O)NCC[C@@H]1CCc2ccc3nn(C)c(Br)c3c21 [Example 25, N-{2-[(8S)-1-bromo-2-methyl-2,6,7,8-tetrahydrocyclopenta[e]indazol-8-yl]ethyl}acetamide] | ≤ 100 | ≤ 100 | 
